Source: US11548900B2, “Oxazino-quinazoline and oxazino-quinoline type compound, preparation method and uses thereof” (BEIJING SCITECH-MQ PHARMACEUTICALS LIMITED, priority 2018, dated 2023)

What was measured:
[1] = target: HER2 kinase (Homo sapiens (Human), UniProt P04626); assay: Inhibition of HER2 kinase activity (ULight-labeled PolyGT substrate); assay type: biochemical; settings: HER2 kinase 10 nM, ATP 10 μM, 2 hours
Description: (§1) The assay for the inhibition of EGFR and HER2 kinase activity by small molecular compounds was carried out using the method as follows:
(§2) 1) Dilution of the compounds
(§3) In a 96-well plate a, the compounds were diluted with DMSO using a 3-fold gradient dilution to form 11 concentrations, the 12th concentration is pure DMSO (as a positive control); and in a new 96-well plate b the above solutions were diluted 25 times with ultrapure water (DMSO concentration is 4%).
(§4) 2) Transferring the compounds to 384-well plate
(§5) The compound solutions diluted with ultrapure water in the 96-well plate b above was transferred to the corresponding wells of a 384-well plate in duplicate.
(§6) 3) Addition of 4×kinase solution: 2.5 μl of the above 4× kinase solution was taken using multichannel pipette and added to the corresponding reaction wells of the 384-well plate, mixed well and pre-reacted at room temperature for 5 minutes.
(§7) 4) Addition of 2×substrate/ATP mixed solution: 5 μl of the above 2×substrate/ATP mixed solution was taken using multichannel pipette and added to the corresponding reaction wells of the 384-well plate.
(§8) 5) Negative control: negative control wells were set in the 384-well plate, and 2.5 μl 4×substrate, 2.5 μl 4×enzyme solution, 2.5 μl 1×Kinase Assay Buffer and 2.5 μl ultrapure water containing 4% DMSO were added to each well.
(§9) 6) Mixed by centrifugation and kept at room temperature for 2 hours in the dark.
(§10) 7) Termination of the enzymatic reaction:
(§11) 5 μl of the above 4× stop solution was pipetted to the corresponding wells of the 384-well plate, centrifuged and mixed, and reacted at room temperature for 5 minutes.
(§12) 5 μl of the above 4× detection solution was pipetted into the corresponding wells of the 384-well plate, centrifuged and mixed, and reacted at room temperature for 1 hour.
(§13) 9) The 384-well plate was placed into a microplate reader and the signal was detected using the corresponding program.
(§14) 10) IC50 analysis: Well reading value=10000*EU665 value/EU615 value Inhibition rate=(reading value of positive control well−reading value of experimental well)/(reading value of positive control well−reading value of negative control well)*100% Corresponding IC50s can be calculated by entering the drug concentrations and the corresponding inhibition rates into GraphPad Prism 5.
Conditions of experiment for screening HER2 kinase inhibitory molecules:
The final concentration of HER2 kinase in the reaction system is 10 nM, the final concentration of ATP is 10 μM, the final concentration of substrate ULight™-labeled PolyGT is 100 nM, and the enzymatic reaction time is 2 hours.
(§15) The maximum final concentration of the compound in the reaction system is 2.5 μM, 11 concentrations were made with a 3-fold gradient dilution, and the minimal final concentration is 0.042 nM. The final concentration of DMSO is 1%.

[2] = target: EGFR kinase (Homo sapiens (Human), UniProt P00533); assay: Inhibition of EGFR kinase activity (ULight-labeled JAK-1 (Tyr1023) peptide substrate); assay type: biochemical; settings: EGFR kinase 0.35 nM, ATP 150 μM, 2 hours
Description: as §1, §2, §3, §4, §5, §6, §7, §8, §9, §10, §11, §12, §13, §14
Conditions of experiment for screening EGFR kinase inhibitory molecules:
The final concentration of EGFR kinase in the reaction system is 0.35 nM, and the final concentration of ATP is 150 μM, the final concentration of substrate ULight™-labeled JAK-1 (Tyr1023) Peptide is 100 nM, and the enzymatic reaction time is 2 hours.
as §15

[3] = tested on: BT474 cells; assay: Inhibition of cell proliferation, BT474 (CCK-8, 72 h); assay type: cell-based; settings: Homo sapiens, BT-474, 72 h incubation
Description: The assay for the inhibition of cell proliferation by small molecular compounds was carried out using the method as follows:
1. 600 μL pancreatin was added to a T75 cell culture flask, which was digested in a 37° C. incubator for about 1 min before 5 mL of DMEM complete culture solution was added, blew evenly, transferred to a 15 mL centrifuge tube, and centrifuged at 1000 rpm for 4 min;
2. The supernatant was removed and 5 mL DMEM complete culture solution was added, blew evenly, and 10 μL cell suspension was taken and mixed with 10 μL 0.4% Trypan Blue, and counted using a cell counter;
3. BT474 and HCC827 cell lines were seeded in 96-well plates at a cell density of 10,000 and 3000 cells/well/80 μL, respectively, and cultured overnight. Only sterile water was added to the 36 wells on the periphery of the 96-well plate without adding cells, and only the 60 wells in the center of the 96-well plate were used for cell assays and controls;
4. Dilution of compounds: the compounds were diluted with a 3-fold dilution to make 10 concentrations in total with an initial concentration of 10 mM;
5. 20 μL of different compounds with different concentrations were added to each well, and 20 μL of complete culture solution was added to the remaining wells. The final concentration of DMSO in each well is 0.25%;
6. After 72 h of incubation, 10 μL CCK-8 reagent was added to each well, and incubated at 37° C. for 1-2 h; and the OD value was read at 450 nm;
7. Cell survival rate (%)=[(As−Ab)/(Ac−Ab)]*100%
As: Assay well (medium containing cell, CCK-8, compound)
Ac: Control well (medium containing cell, CCK-8)
Ab: Blank well (CCK-8, medium without cell and compound)
8. The value was imported into Graphpad Prism5 software for the calculation of IC50s (compound concentration at which 50% maximum survival rate is observed).

Sequence of HER2 kinase (P04626 23-1255): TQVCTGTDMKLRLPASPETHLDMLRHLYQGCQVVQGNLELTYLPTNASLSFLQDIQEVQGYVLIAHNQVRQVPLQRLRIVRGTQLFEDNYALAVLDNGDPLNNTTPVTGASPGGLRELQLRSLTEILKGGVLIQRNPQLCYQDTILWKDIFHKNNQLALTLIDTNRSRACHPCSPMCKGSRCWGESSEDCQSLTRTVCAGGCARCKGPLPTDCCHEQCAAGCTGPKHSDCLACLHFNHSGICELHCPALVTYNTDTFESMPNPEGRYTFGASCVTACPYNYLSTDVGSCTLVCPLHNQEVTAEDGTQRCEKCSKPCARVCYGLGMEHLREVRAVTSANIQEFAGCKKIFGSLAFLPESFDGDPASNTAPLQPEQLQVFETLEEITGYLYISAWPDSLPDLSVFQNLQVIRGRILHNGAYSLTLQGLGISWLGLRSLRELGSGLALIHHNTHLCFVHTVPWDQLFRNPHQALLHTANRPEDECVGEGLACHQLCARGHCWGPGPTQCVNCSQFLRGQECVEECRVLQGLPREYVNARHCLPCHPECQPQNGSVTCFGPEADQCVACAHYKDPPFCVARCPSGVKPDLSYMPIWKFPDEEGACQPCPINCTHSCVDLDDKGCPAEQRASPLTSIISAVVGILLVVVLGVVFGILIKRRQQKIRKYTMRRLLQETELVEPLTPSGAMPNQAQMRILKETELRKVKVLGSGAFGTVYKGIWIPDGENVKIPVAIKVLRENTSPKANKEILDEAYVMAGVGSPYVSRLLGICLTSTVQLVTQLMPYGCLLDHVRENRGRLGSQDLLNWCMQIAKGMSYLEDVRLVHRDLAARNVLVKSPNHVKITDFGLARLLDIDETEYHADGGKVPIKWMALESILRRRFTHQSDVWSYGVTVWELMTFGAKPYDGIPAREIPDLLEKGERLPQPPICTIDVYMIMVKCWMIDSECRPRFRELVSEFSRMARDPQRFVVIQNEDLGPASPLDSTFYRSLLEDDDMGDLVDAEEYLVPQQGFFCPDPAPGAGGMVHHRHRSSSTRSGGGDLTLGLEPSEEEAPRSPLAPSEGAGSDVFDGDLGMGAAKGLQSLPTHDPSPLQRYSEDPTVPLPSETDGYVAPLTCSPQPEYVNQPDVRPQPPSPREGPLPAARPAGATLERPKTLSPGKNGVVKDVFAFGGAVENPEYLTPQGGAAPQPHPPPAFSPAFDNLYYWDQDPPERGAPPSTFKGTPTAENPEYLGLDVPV
Sequence of EGFR kinase (P00533 25-1210): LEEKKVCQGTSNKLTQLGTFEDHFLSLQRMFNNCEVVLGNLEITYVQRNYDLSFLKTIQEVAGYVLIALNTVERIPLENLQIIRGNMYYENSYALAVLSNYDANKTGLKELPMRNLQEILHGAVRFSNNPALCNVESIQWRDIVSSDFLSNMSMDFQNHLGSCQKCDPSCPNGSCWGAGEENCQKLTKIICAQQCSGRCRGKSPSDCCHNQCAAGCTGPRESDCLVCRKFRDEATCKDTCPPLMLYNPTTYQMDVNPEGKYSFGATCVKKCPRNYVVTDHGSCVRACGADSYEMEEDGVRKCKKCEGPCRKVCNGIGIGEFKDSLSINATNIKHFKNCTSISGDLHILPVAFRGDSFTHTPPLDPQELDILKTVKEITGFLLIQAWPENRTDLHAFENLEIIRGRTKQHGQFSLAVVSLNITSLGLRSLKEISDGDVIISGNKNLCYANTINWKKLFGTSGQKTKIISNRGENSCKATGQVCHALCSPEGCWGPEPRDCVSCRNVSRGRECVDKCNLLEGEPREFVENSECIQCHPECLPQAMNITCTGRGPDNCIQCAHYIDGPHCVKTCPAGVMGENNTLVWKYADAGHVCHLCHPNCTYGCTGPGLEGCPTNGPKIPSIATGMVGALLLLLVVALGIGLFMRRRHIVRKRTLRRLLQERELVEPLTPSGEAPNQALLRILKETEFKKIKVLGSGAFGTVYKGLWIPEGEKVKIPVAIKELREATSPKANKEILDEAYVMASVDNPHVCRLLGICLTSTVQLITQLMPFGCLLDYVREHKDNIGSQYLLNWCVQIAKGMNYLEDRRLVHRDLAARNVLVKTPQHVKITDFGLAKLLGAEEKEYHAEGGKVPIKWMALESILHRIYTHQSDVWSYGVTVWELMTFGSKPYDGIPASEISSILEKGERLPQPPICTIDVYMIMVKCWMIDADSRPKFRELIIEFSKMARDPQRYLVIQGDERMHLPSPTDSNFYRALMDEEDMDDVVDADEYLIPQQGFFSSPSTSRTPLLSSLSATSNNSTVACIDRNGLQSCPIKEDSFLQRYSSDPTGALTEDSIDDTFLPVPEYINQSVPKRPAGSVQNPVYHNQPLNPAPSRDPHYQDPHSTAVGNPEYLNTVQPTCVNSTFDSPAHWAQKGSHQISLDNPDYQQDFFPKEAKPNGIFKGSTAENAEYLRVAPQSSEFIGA

Compound | IC50 [1] | IC50 [2] | IC50 [3]
C=CC(=O)N1CCOc2c1ccc1ncnc(Oc3ccc(OCc4ccccn4)c(Cl)c3)c21 [Example 34, 1-(10-(3-chloro-4-(pyridin-2-ylmethoxy)phenoxy)-2,3-dihydro-4H-[1,4]oxazino[2,3-f]quinazolin-4-yl)prop-2-en-1-one] | ≤ 50 nM | ≤ 50 nM | –
CN(C)C/C=C/C(=O)N1CCOc2c1ccc1ncnc(Nc3ccc(OCc4ccncc4)cc3)c21 [Example 77, (E)-4-(dimethylamino)-1-(10-((4-(pyridin-4-ylmethoxy)phenyl)amino)-2,3-dihydro-4H-[1,4]oxazino[2,3-f]quinazolin-4-yl)but-2-en-1-one] | ≤ 50 nM | 500 to 5000 nM | –
CN(C/C=C/C(=O)N1CCOc2c1ccc1ncnc(Nc3ccc(OCc4ccccn4)c(Cl)c3)c21)CCO [Example 122, (E)-1-(10-((3-chloro-4-(pyridin-2-ylmethoxy)phenyl)amino)-2,3-dihydro-4H-[1,4]oxazino[2,3-f]quinazolin-4-yl)-4-((2-hydroxyethyl)(methyl)amino)but-2-en-1-one] | ≤ 50 nM | – | ≤ 50 nM
CN1CCC[C@@H]1/C=C/C(=O)N1CCOc2c1ccc1ncnc(Nc3ccc(OCc4ccccn4)c(Cl)c3)c21 [Example 114] | ≤ 50 nM | – | ≤ 50 nM
CN(C)C/C=C/C(=O)N1CCOc2c1ccc1ncnc(Nc3ccc(OCc4cccc(F)c4)c(C(F)(F)F)c3)c21 [Example 67] | ≤ 50 nM | ≤ 50 nM | –
C=CC(=O)N1CCOc2c1ccc1ncnc(Nc3ccc(OCc4cccc(F)c4)c(Cl)c3)c21 [Example 3] | ≤ 50 nM | ≤ 50 nM | –
C[C@H]1CN(C)CCN1C/C=C/C(=O)N1CCOc2c1ccc1ncnc(Nc3ccc(OCc4ccccn4)c(Cl)c3)c21 [Example 121, (S,E)-1-(10-((3-chloro-4-(pyridin-2-ylmethoxy)phenyl)amino)-2,3-dihydro-4H-[1,4]oxazino[2,3-f]quinazolin-4-yl)-4-(2,4-dimethylpiperazin-1-yl)but-2-en-1-one] | ≤ 50 nM | – | ≤ 50 nM
C=CC(=O)N1CCOc2c1ccc1ncnc(Nc3ccc(Oc4ccccc4)cc3)c21 [Example 2, 1-(10-((4-phenoxyphenyl)amino)-2,3-dihydro-4H-[1,4]oxazino[2,3-f]quinazolin-4-yl)prop-2-en-1-one] | ≤ 50 nM | ≤ 50 nM | –
CN(C)C/C=C/C(=O)N1CCOc2c1ccc1ncnc(Nc3ccc(OCc4cccc(F)c4)c(Cl)c3)c21 [Example 45, (E)-1-(10-((3-chloro-4-((3-fluorobenzyl)oxy)phenyl)amino)-2,3-dihydro-4H-[1,4]oxazino[2,3-f]quinazolin-4-yl)-4-(dimethylamino)but-2-en-1-one] | ≤ 50 nM | ≤ 50 nM | –
O=C(/C=C/CN1CCC(CO)CC1)N1CCOc2c1ccc1ncnc(Nc3ccc(OCc4ccccn4)c(Cl)c3)c21 [Example 117, (E)-1-(10-((3-chloro-4-(pyridin-2-ylmethoxy)phenyl)amino)-2,3-dihydro-4H-[1,4]oxazino[2,3-f]quinazolin-4-yl)-4-(4-(hydroxymethyl)piperidin-1-yl)but-2-en-1-one] | ≤ 50 nM | – | ≤ 50 nM
COCCCCNC/C=C/C(=O)N1CCOc2c1ccc1ncnc(Nc3ccc(Oc4ccccc4F)cc3)c21 [Example 99, (E)-1-(10-((4-(2-fluorophenoxy)phenyl)amino)-2,3-dihydro-4H-[1,4]oxazino[2,3-f]quinazolin-4-yl)-4-((4-methoxybutyl)amino)but-2-en-1-one] | ≤ 50 nM | 50 to 500 nM | –
C=CC(=O)N1CCOc2c1ccc1ncnc(Oc3ccc(OCc4ccc(F)cc4)cc3)c21 [Example 42, 1-(10-(4-((4-fluorobenzyl)oxy)phenoxy)-2,3-dihydro-4H-[1,4]oxazino[2,3-f]quinazolin-4-yl)prop-2-en-1-one] | ≤ 50 nM | ≤ 50 nM | –
O=C(/C=C/CN1CCC(O)CC1)N1CCOc2c1ccc1ncnc(Nc3ccc(OCc4ccccn4)c(Cl)c3)c21 [Example 115, (E)-1-(10-((3-chloro-4-(pyridin-2-ylmethoxy)phenyl)amino)-2,3-dihydro-4H-[1,4]oxazino[2,3-f]quinazolin-4-yl)-4-(4-hydroxypiperidin-1-yl)but-2-en-1-one] | ≤ 50 nM | – | ≤ 50 nM
O=C(/C=C/CN1CCC(F)CC1)N1CCOc2c1ccc1ncnc(Nc3ccc(OCc4ccccn4)c(Cl)c3)c21 [Example 118, (E)-1-(10-((3-chloro-4-(pyridin-2-ylmethoxy)phenyl)amino)-2,3-dihydro-4H-[1,4]oxazino[2,3-f]quinazolin-4-yl)-4-(4-fluoropiperidin-1-yl)but-2-en-1-one] | ≤ 50 nM | – | ≤ 50 nM
CN(C/C=C/C(=O)N1CCOc2c1ccc1ncnc(Nc3ccc(OCc4ccccn4)c(Cl)c3)c21)CCCO [Example 120, (E)-1-(10-((3-chloro-4-(pyridin-2-ylmethoxy)phenyl)amino)-2,3-dihydro-4H-[1,4]oxazino[2,3-f]quinazolin-4-yl)-4-((3-hydroxypropyl)(methyl)amino)but-2-en-1-one] | ≤ 50 nM | – | ≤ 50 nM
C[C@@H]1CN(C)CCN1C/C=C/C(=O)N1CCOc2c1ccc1ncnc(Nc3ccc(OCc4ccccn4)c(Cl)c3)c21 [Example 123, (R,E)-1-(10-((3-chloro-4-(pyridin-2-ylmethoxy)phenyl)amino)-2,3-dihydro-4H-[1,4]oxazino[2,3-f]quinazolin-4-yl)-4-(2,4-dimethylpiperazin-1-yl)but-2-en-1-one] | ≤ 50 nM | – | ≤ 50 nM
O=C(/C=C/CN1CCCCC1)N1CCOc2c1ccc1ncnc(Nc3ccc(Oc4ccccc4)cc3F)c21 [Example 97, (E)-1-(10-((2-fluoro-4-phenoxyphenyl)amino)-2,3-dihydro-4H-[1,4]oxazino[2,3-f]quinazolin-4-yl)-4-(piperidin-1-yl)but-2-en-1-one] | ≤ 50 nM | – | –
C=CC(=O)N1CCOc2c1ccc1ncnc(Nc3ccc(OCc4cccc(F)c4)cc3)c21 [Example 19, 1-(10-((4-((3-fluorobenzyl)oxy)phenyl)amino)-2,3-dihydro-4H-[1,4]oxazino[2,3-f]quinazolin-4-yl)prop-2-en-1-one] | ≤ 50 nM | – | –
C=CC(=O)N1CCOc2c1ccc1ncnc(Nc3ccc(Oc4nccs4)cc3)c21 [Example 15, 1-(10-((4-(thiazol-2-yloxy)phenyl)amino)-2,3-dihydro-4H-[1,4]oxazino[2,3-f]quinazolin-4-yl)prop-2-en-1-one] | ≤ 50 nM | – | –
C=CC(=O)N1CCOc2c1ccc1ncnc(Nc3ccc(Oc4cccnc4)cc3)c21 [Example 13, 1-(10-((4-(pyridin-3-yloxy)phenyl)amino)-2,3-dihydro-4H-[1,4]oxazino[2,3-f]quinazolin-4-yl)prop-2-en-1-one] | ≤ 50 nM | – | –
C=CC(=O)N1CCOc2c1ccc1ncnc(Nc3ccc(SCc4ccccc4)cc3)c21 [Example 24, 1-(10-((4-(benzylthio)phenyl)amino)-2,3-dihydro-4H-[1,4]oxazino[2,3-f]quinazolin-4-yl)prop-2-en-1-one] | ≤ 50 nM | – | –
